Experimental data taken from patent US20110071108A1, “Beta-Cyclodextrin Derivatives as Antibacterial Agents” (Pinnacle Pharmaceuticals, Inc., priority 2005, published 2011).

How the values were obtained:
Assay in all cases: Bacterial panel testing, MIC by broth microdilution
Format in all cases: cell-based
Details in all cases: 20-24 hours growth
Staphylococcus aureus = system: Staphylococcus aureus
Procedure: (§1) One to three colonies of bacteria were picked from an Mueller-Hinton or Brain Heart infusion agar plate (depending on the bacterial strain) and transferred to 3 ml Mueller-Hinton broth or Brain Heart infusion media (depending on the bacterial strain). Bacteria were allowed to grow for 2-4 hours in an incubator at 37° C. Bacteria-inoculated media were dispersed in 0.9% saline to match McFarland standard density. 100 μl standardized inoculation was added to 20 ml media (dilution 1). 10 μl of the new dilution was added to 990 μl media and mixed (dilution 2). 10 μl of dilution 2 was spread on an agar plate and allowed to grow overnight. Colonies were then […].
(§2) Test compound was diluted to 10 μg/ml in dimethylsulfoxide. Four μl of Rifampicin antibiotic was loaded into row H, column 2.
(§3) All wells were then filled with 100 μl of inoculated media (dilution 1 from Example 1). A further 100 μl of the inoculated media was then added to column 2 and the contents are pipetted to thoroughly mix the contents. A full 100 μl was then transferred from column 2 and mixed into column 3. This process was continued from left to right until columns 2-12 were serially diluted, and the final draw from column 12 was discarded. The plates were covered with 3M sealing tape (plates containing Enterococcus faecium were sealed with Air Pore sealing tape) and allowed to grow for 20-24 hours. Cytotoxic wells (clear wells) are then scored and the potency of the compound was determined.

Enterococcus faecium = system: Enterococcus faecium
Procedure: as §1, §2, §3

Pseudomonas aeruginosa = system: Pseudomonas aeruginosa
Procedure: as §1, §2, §3

Salmonella choleraesuis = system: Salmonella choleraesuis
Procedure: as §1, §2, §3

Eschericia coli = system: Eschericia coli
Procedure: as §1, §2, §3

CC(C)(C)OC(=O)NC(CCCN)C(=O)NCC1OC2OC3C(CNC(=O)C(CCCN)NC(=O)OC(C)(C)C)OC(OC4C(CNC(=O)C(CCCN)NC(=O)OC(C)(C)C)OC(OC5C(CNC(=O)C(CCCN)NC(=O)OC(C)(C)C)OC(OC6C(CNC(=O)C(CCCN)NC(=O)OC(C)(C)C)OC(OC7C(CNC(=O)C(CCCN)NC(=O)OC(C)(C)C)OC(OC8C(CNC(=O)C(CCCN)NC(=O)OC(C)(C)C)OC(OC1C(O)C2O)C(O)C8O)C(O)C7O)C(O)C6O)C(O)C5O)C(O)C4O)C(O)C3O.Cl.Cl.Cl.Cl.Cl.Cl.Cl (stereo not drawn)
>200 µg/mL: MIC SA (Staphylococcus aureus) | MIC EF (Enterococcus faecium) | MIC PA (Pseudomonas aeruginosa)

Cl.Cl.Cl.Cl.Cl.Cl.Cl.NC(CO)C(=O)NCC1OC2OC3C(CNC(=O)C(N)CO)OC(OC4C(CNC(=O)C(N)CO)OC(OC5C(CNC(=O)C(N)CO)OC(OC6C(CNC(=O)C(N)CO)OC(OC7C(CNC(=O)C(N)CO)OC(OC8C(CNC(=O)C(N)CO)OC(OC1C(O)C2O)C(O)C8O)C(O)C7O)C(O)C6O)C(O)C5O)C(O)C4O)C(O)C3O (stereo not drawn)
>200 µg/mL: MIC SA (Staphylococcus aureus) | MIC SC (Salmonella choleraesuis) | MIC EC (Eschericia coli) | MIC PA (Pseudomonas aeruginosa)

CC(O)C(N)C(=O)NCC1OC2OC3C(CNC(=O)C(N)C(C)O)OC(OC4C(CNC(=O)C(N)C(C)O)OC(OC5C(CNC(=O)C(N)C(C)O)OC(OC6C(CNC(=O)C(N)C(C)O)OC(OC7C(CNC(=O)C(N)C(C)O)OC(OC8C(CNC(=O)C(N)C(C)O)OC(OC1C(O)C2O)C(O)C8O)C(O)C7O)C(O)C6O)C(O)C5O)C(O)C4O)C(O)C3O.Cl.Cl.Cl.Cl.Cl.Cl.Cl (stereo not drawn)
>200 µg/mL: MIC SA (Staphylococcus aureus) | MIC SC (Salmonella choleraesuis) | MIC EC (Eschericia coli) | MIC PA (Pseudomonas aeruginosa)

CC(C)(C)[Si](C)(C)OC1CNC(C(=O)NCC2OC3OC4C(CNC(=O)C5CC(O[Si](C)(C)C(C)(C)C)CN5)OC(OC5C(CNC(=O)C6CC(O[Si](C)(C)C(C)(C)C)CN6)OC(OC6C(CNC(=O)C7CC(O[Si](C)(C)C(C)(C)C)CN7)OC(OC7C(CNC(=O)C8CC(O[Si](C)(C)C(C)(C)C)CN8)OC(OC8C(CNC(=O)C9CC(O[Si](C)(C)C(C)(C)C)CN9)OC(OC9C(CNC(=O)C%10CC(O[Si](C)(C)C(C)(C)C)CN%10)OC(OC2C(O)C3O)C(O)C9O)C(O)C8O)C(O)C7O)C(O)C6O)C(O)C5O)C(O)C4O)C1.O=C(O)C(F)(F)F.O=C(O)C(F)(F)F.O=C(O)C(F)(F)F.O=C(O)C(F)(F)F.O=C(O)C(F)(F)F.O=C(O)C(F)(F)F.O=C(O)C(F)(F)F (stereo not drawn)
>200 µg/mL: MIC EF (Enterococcus faecium) | MIC PA (Pseudomonas aeruginosa)

COC(=O)c1cccc(NCC2OC3OC4C(CNc5cccc(C(=O)OC)c5)OC(OC5C(CNc6cccc(C(=O)OC)c6)OC(OC6C(CNc7cccc(C(=O)OC)c7)OC(OC7C(CNc8cccc(C(=O)OC)c8)OC(OC8C(CNc9cccc(C(=O)OC)c9)OC(OC9C(CNc%10cccc(C(=O)OC)c%10)OC(OC2C(O)C3O)C(O)C9O)C(O)C8O)C(O)C7O)C(O)C6O)C(O)C5O)C(O)C4O)c1 (stereo not drawn)
>200 µg/mL: MIC SA (Staphylococcus aureus) | MIC SC (Salmonella choleraesuis) | MIC EC (Eschericia coli) | MIC PA (Pseudomonas aeruginosa)

OC1C2OC(CN3CCCc4ccccc43)C(OC3OC(CN4CCCc5ccccc54)C(OC4OC(CN5CCCc6ccccc65)C(OC5OC(CN6CCCc7ccccc76)C(OC6OC(CN7CCCc8ccccc87)C(OC7OC(CN8CCCc9ccccc98)C(OC8OC(CN9CCCc%10ccccc%109)C(O2)C(O)C8O)C(O)C7O)C(O)C6O)C(O)C5O)C(O)C4O)C(O)C3O)C1O (stereo not drawn)
>200 µg/mL: MIC SC (Salmonella choleraesuis) | MIC EF (Enterococcus faecium) | MIC EC (Eschericia coli) | MIC PA (Pseudomonas aeruginosa)

OC1C2OC(CNC3CCCc4ccccc43)C(OC3OC(CNC4CCCc5ccccc54)C(OC4OC(CNC5CCCc6ccccc65)C(OC5OC(CNC6CCCc7ccccc76)C(OC6OC(CNC7CCCc8ccccc87)C(OC7OC(CNC8CCCc9ccccc98)C(OC8OC(CNC9CCCc%10ccccc%109)C(O2)C(O)C8O)C(O)C7O)C(O)C6O)C(O)C5O)C(O)C4O)C(O)C3O)C1O (stereo not drawn)
>200 µg/mL: MIC EF (Enterococcus faecium) | MIC EC (Eschericia coli) | MIC PA (Pseudomonas aeruginosa)

CCCCCCCCCCCCCCCC[N+]12CC[N+](CC(=O)NCC3OC4OC5C(CNC(=O)C[N+]67CC[N+](CCCCCCCCCCCCCCCC)(CC6)CC7)OC(OC6C(CNC(=O)C[N+]78CC[N+](CCCCCCCCCCCCCCCC)(CC7)CC8)OC(OC7C(CNC(=O)C[N+]89CC[N+](CCCCCCCCCCCCCCCC)(CC8)CC9)OC(OC8C(CNC(=O)C[N+]9%10CC[N+](CCCCCCCCCCCCCCCC)(CC9)CC%10)OC(OC9C(CNC(=O)C[N+]%10%11CC[N+](CCCCCCCCCCCCCCCC)(CC%10)CC%11)OC(OC%10C(CNC(=O)C[N+]%11%12CC[N+](CCCCCCCCCCCCCCCC)(CC%11)CC%12)OC(OC3C(O)C4O)C(O)C%10O)C(O)C9O)C(O)C8O)C(O)C7O)C(O)C6O)C(O)C5O)(CC1)CC2 (stereo not drawn)
>200 µg/mL: MIC SC (Salmonella choleraesuis) | MIC EF (Enterococcus faecium) | MIC EC (Eschericia coli) | MIC PA (Pseudomonas aeruginosa)

Cc1ccc(NCC2OC3OC4C(CNc5ccc(C)cc5)OC(OC5C(CNc6ccc(C)cc6)OC(OC6C(CNc7ccc(C)cc7)OC(OC7C(CNc8ccc(C)cc8)OC(OC8C(CNc9ccc(C)cc9)OC(OC9C(CNc%10ccc(C)cc%10)OC(OC2C(O)C3O)C(O)C9O)C(O)C8O)C(O)C7O)C(O)C6O)C(O)C5O)C(O)C4O)cc1 (stereo not drawn)
>200 µg/mL: MIC SC (Salmonella choleraesuis) | MIC EF (Enterococcus faecium) | MIC EC (Eschericia coli) | MIC PA (Pseudomonas aeruginosa)

Cl.Cl.Cl.Cl.Cl.Cl.NCCCCCCSCC1OC2OC3C(CSCCCCCCN)OC(OC4C(CSCCCCCCN)OC(OC5C(CSCCCCCCN)OC(OC6C(CSCCCCCCN)OC(OC7C(CSCCCCCCN)OC(OC1C(O)C2O)C(O)C7O)C(O)C6O)C(O)C5O)C(O)C4O)C(O)C3O (stereo not drawn)
>200 µg/mL: MIC SA (Staphylococcus aureus) | MIC SC (Salmonella choleraesuis) | MIC EF (Enterococcus faecium) | MIC EC (Eschericia coli)

Cl.Cl.Cl.Cl.Cl.Cl.Cl.NCCCCCCCSCC1OC2OC3C(CSCCCCCCCN)OC(OC4C(CSCCCCCCCN)OC(OC5C(CSCCCCCCCN)OC(OC6C(CSCCCCCCCN)OC(OC7C(CSCCCCCCCN)OC(OC8C(CSCCCCCCCN)OC(OC1C(O)C2O)C(O)C8O)C(O)C7O)C(O)C6O)C(O)C5O)C(O)C4O)C(O)C3O (stereo not drawn)
>200 µg/mL: MIC SA (Staphylococcus aureus) | MIC SC (Salmonella choleraesuis) | MIC EF (Enterococcus faecium) | MIC PA (Pseudomonas aeruginosa)

OC1C2OC(CN3CCN(C4CCCCC4)CC3)C(OC3OC(CN4CCN(C5CCCCC5)CC4)C(OC4OC(CN5CCN(C6CCCCC6)CC5)C(OC5OC(CN6CCN(C7CCCCC7)CC6)C(OC6OC(CN7CCN(C8CCCCC8)CC7)C(OC7OC(CN8CCN(C9CCCCC9)CC8)C(OC8OC(CN9CCN(C%10CCCCC%10)CC9)C(O2)C(O)C8O)C(O)C7O)C(O)C6O)C(O)C5O)C(O)C4O)C(O)C3O)C1O (stereo not drawn)
>200 µg/mL: MIC SC (Salmonella choleraesuis) | MIC EF (Enterococcus faecium) | MIC EC (Eschericia coli) | MIC PA (Pseudomonas aeruginosa)

Cl.Cl.Cl.Cl.Cl.Cl.Cl.N=C(N)NCCCCCCSCC1OC2OC3C(CSCCCCCCNC(=N)N)OC(OC4C(CSCCCCCCNC(=N)N)OC(OC5C(CSCCCCCCNC(=N)N)OC(OC6C(CSCCCCCCNC(=N)N)OC(OC7C(CSCCCCCCNC(=N)N)OC(OC8C(CSCCCCCCNC(=N)N)OC(OC1C(O)C2O)C(O)C8O)C(O)C7O)C(O)C6O)C(O)C5O)C(O)C4O)C(O)C3O (stereo not drawn)
>200 µg/mL: MIC SC (Salmonella choleraesuis) | MIC EF (Enterococcus faecium) | MIC EC (Eschericia coli) | MIC PA (Pseudomonas aeruginosa)

CC(C)[C@H](C)NCC1OC2OC3C(CN[C@@H](C)C(C)C)OC(OC4C(CN[C@@H](C)C(C)C)OC(OC5C(CN[C@@H](C)C(C)C)OC(OC6C(CN[C@@H](C)C(C)C)OC(OC7C(CN[C@@H](C)C(C)C)OC(OC8C(CN[C@@H](C)C(C)C)OC(OC1C(O)C2O)C(O)C8O)C(O)C7O)C(O)C6O)C(O)C5O)C(O)C4O)C(O)C3O (stereo partly drawn)
>200 µg/mL: MIC EF (Enterococcus faecium) | MIC PA (Pseudomonas aeruginosa)

Cl.Cl.Cl.Cl.Cl.Cl.Cl.NCCSCCCSCC1OC2OC3C(CSCCCSCCN)OC(OC4C(CSCCCSCCN)OC(OC5C(CSCCCSCCN)OC(OC6C(CSCCCSCCN)OC(OC7C(CSCCCSCCN)OC(OC8C(CSCCCSCCN)OC(OC1C(O)C2O)C(O)C8O)C(O)C7O)C(O)C6O)C(O)C5O)C(O)C4O)C(O)C3O (stereo not drawn)
>200 µg/mL: MIC SA (Staphylococcus aureus) | MIC SC (Salmonella choleraesuis) | MIC EF (Enterococcus faecium) | MIC PA (Pseudomonas aeruginosa)
